Laboratory results: patent publication US20140349943A1, “TOPICAL FORMULATIONS OF CHEMERIN C15 PEPTIDES FOR THE TREATMENT OF DERMATOLOGICAL CONDITIONS” (priority 2011, published 2014)
Peptide text beside a SMILES is read from it.

Key:
[1] = test system: IFNγ/LPS stimulated human macrophages; assay: Cytokine secretion by IFNγ/LPS stimulated human macrophages (Luminex); format: cell-based
Description: In this example, the ability of human chemerin C15 to inhibit secretion of cytokines from activated human macrophages was examined. For this experiment, the activity of the human chemerin C15 peptide […] (SEQ ID NO: 1) was compared to that of the human chemerin C17 peptide […] (SEQ ID NO: 25). The C15 and C17 peptides were synthesized by solid phase synthesis using BOP coupling of FMOC protected amino acids with final cleavage from the resin with TFA. Peptides were purified by reverse phase C18 chromatography using a water/acetonitrile gradient.
Human macrophages were derived from human CD14+ monocytes obtained from 3 donors. On Day 1, the isolated monocytes were thawed and seeded in triplicate for each group in 1 ml RPMI 1640 GlutaMAX™ media (supplemented with 10% FBS, 100 U/ml penicillin, 100 μg/ml streptomycin, 0.05 μM mercaptoethanol, 1% NEAA and 1% sodium pyruvate) per well of a 24 well cell culture dish at a cell concentration of 5×10^5 cells/ml. M-CSF was added to each well to give a final concentration of 25 ng/ml. Cells were grown for 7 days at 37° C. with 5% CO2 to differentiate the cells into macrophages. Media and M-CSF were replaced after 4 days.
Following differentiation, the media containing M-CSF was removed. The cells were washed and vehicle control, dexamethasone, C15 or C17 were added to the appropriate wells. The test peptides were dissolved in 50% DMSO/water prior to addition. C-15 (MW 1669; 16.7 mg/ml) was added to a final concentration of […] and C17 (MW 1904; 19.0 mg/ml) was added to a final concentration of 1 μM. Dexamethasone was added to a final concentration of 1 μM. Following addition to the wells, the plates were incubated at 37° C. with 5% CO2 for 1 hour. An equal volume of complete media was added to the non-treated wells. Control or test treatments were maintained at the correct concentration throughout the assay.
IFNγ (final concentration 20 ng/ml) was then added to the appropriate wells. Following IFNγ addition, the plates were incubated at 37° C. with 5% CO2 for 4 hours. The concentration of vehicle control, test treatments or dexamethasone was maintained during IFNγ stimulation. LPS (final concentration 10 ng/ml) was then added to the appropriate wells. Following LPS addition, the plates were incubated at 37° C. with 5% CO2 for 15 hours. After 6 hours, ˜60 μl of culture supernatant was removed from all wells and stored at −80° C. for analysis. The concentration of vehicle control, test treatments or dexamethasone was maintained during LPS stimulation.
At 15 hours post LPS stimulation, the remaining cell culture supernatant was harvested and stored at −80° C. until assayed. The concentration of vehicle control, test treatments or dexamethasone was maintained until culture termination.
Cell culture supernatants taken at 6 hours and 15 hours post LPS addition were assayed for the production of RANTES, TNFα, IL-1β, IL-6, IL-10, IL-12p40 (subunit common to IL-12 and IL-23) and IL-15 (negative control) using Luminex® technology (Procarta human cytokine kit; Panomics) following the manufacturer's instructions.
In this experiment, the importance of the FYFP motif (SEQ ID NO: 2) in the human chemerin C15 peptide on anti-inflammatory activity was examined. The ability of the human chemerin C15 peptide […] (SEQ ID NO: 1) was compared to that of a substituted chemerin C15 peptide having the amino acid sequence […] (SEQ ID NO: 27), where the second phenylalanine in the peptide is modified to alanine. The experiment was performed as described in Example 1. 0.1 pM 0.5 pM and 1 pM concentrations of the C15 and C15 mutant peptides were tested. Cytokine expression was determined as described in Example 1.

[2] = test system: IFNγ/LPS stimulated human macrophages; assay: as above; format: cell-based; conditions: 16 hours post-stimulation
mice = assay: Contact hypersensitivity assay; format: in vivo, mouse; conditions: TNCB hapten; ear thickness; expected
Procedure: In this example, the therapeutic activity of a human chemerin C15 peptide is tested in a contact hypersensitivity assay, which is an in vivo assay of cell-mediated immune function and a model for human allergic contact dermatitis. In this assay, epidermal cells are exposed to exogenous haptens which results in a delayed-type hypersensitive reaction that can be measured and quantified. The Langerhans cell, which is an Ia^+, bone marrow-derived, epidermal cell, initiates sensitization to haptens by presenting antigens to CD4-bearing T lymphocytes, which, in turn, secrete lymphokines and recruit other cells to the site of the reaction.
Contact hypersensitivity consists of the afferent or initial sensitizing phase, and the efferent or elicitation phase. During the efferent phase, when epidermal cells encounter a particular antigen to which they have previously been exposed, localized swelling occurs (in rodents) and in humans results in eczema of the skin.
In an exemplary protocol, mice are shaved and the skin of their abdomens exposed to a hapten. After 6 days (the afferent phase), the baseline ear thickness is measured prior to initiation of the efferent phase. Finally, the ear is treated epicutaneously with the hapten solution and ear thickness is measured at approximately 24 hr. […]

[3] = Stability of C15 in homogenates of frozen and fresh human skin; format: in vitro ADME
Procedure: An initial study was performed comparing stability of human C15 versus Mouse C15. Homogenates of frozen and fresh human skin were prepared to evaluate the degradation of C15 in skin. Frozen or fresh human skin were separately minced and homogenized in 3 ml water and the supernatant isolated. Supernatant was mixed with solutions of mouse or human C15 to yield a 0.5 mg/ml C15 solution. Each solution was incubated at 37° C. and samples were taken at 0, 1, 2 and 24 hours for analysis of C15 (FIG. 3).

[4] = Example 3, 0.1 pM 0.5 pM and 1 pM tested, FIG. 3
[5] = after 24 hours, 37° C., 0.5 mg/ml

| SMILES | inhibition of newly synthesized RANTES (difference between the 6 and 15 hour time points) ([1]; 1 pM) | decrease in IL-10 ([1]; C15 peptide treatment) [%] | percent inhibition of RANTES expression [1, 4] [%] | percent inhibition of TNFα expression [1, 4] [%] | inhibition of cytokine production/secretion in vitro ([1]; within 15 hours) | inhibition of human macrophage secretion of IL-1β ([2]; 1 pM) | inhibition of human macrophage secretion of RANTES ([2]; 1 pM) [%] | inhibition of human macrophage secretion of IL-12p40 [2] | allergic response (contact hypersensitivity) (mice) | C15 degradation in homogenate from fresh skin [3, 5] [%] | C15 degradation in homogenate from frozen skin [3, 5] [%] | relative stability in skin homogenate ([3]; human vs mouse C15) | inhibition of cytokine production ([1]; 1 μM) |
| --- | --- | --- | --- | --- | --- | --- | --- | --- | --- | --- | --- | --- | --- |
| C[C@H](N)C(=O)NCC(=O)N[C@@H](CCC(=O)O)C(=O)N[C@@H](CC(=O)O)C(=O)N1CCC[C@H]1C(=O)N[C@@H](Cc1c[nH]cn1)C(=O)N[C@@H](CO)C(=O)N[C@@H](Cc1ccccc1)C(=O)N[C@@H](Cc1ccc(O)cc1)C(=O)N[C@@H](Cc1ccccc1)C(=O)N1CCC[C@H]1C(=O)NCC(=O)N[C@@H](CCC(N)=O)C(=O)N[C@@H](Cc1ccccc1)C(=O)N[C@@H](C)C(=O)O [C15 (human)] (H-AGEDPHSFYFPGQFA-OH; N-terminus and C-terminus assumed) | approximately 90% | ~25 | 47 | 61 | 40-60% | approximately 45% | ~65 | approximately 55% | prevention, suppression and/or treatment of the allergic response | 98 | 25 | more stable than mouse C15 | – |
| C[C@H](N)C(=O)NCC(=O)N[C@@H](CCC(=O)O)C(=O)N[C@@H](CC(=O)O)C(=O)N1CCC[C@H]1C(=O)N[C@@H](Cc1c[nH]cn1)C(=O)N[C@@H](CO)C(=O)N[C@@H](Cc1ccccc1)C(=O)N[C@@H](Cc1ccc(O)cc1)C(=O)N[C@@H](Cc1ccccc1)C(=O)N1CCC[C@H]1C(=O)NCC(=O)N[C@@H](CCC(N)=O)C(=O)N[C@@H](Cc1ccccc1)C(=O)N[C@@H](C)C(=O)N[C@@H](Cc1ccccc1)C(=O)N[C@@H](CO)C(=O)O [C17 (human)] (H-AGEDPHSFYFPGQFAFS-OH; N-terminus and C-terminus assumed) | – | – | – | – | – | – | – | – | – | – | – | – | did not exhibit any significant inhibition |
